Converted amounts (≈) assume the structure as drawn. “And” between values parts separate entries of the source, which are not always exact repeats. Equal entries are not always repeated.
Columns and labels:
[1] = Stability in mouse serum (half-life); type: in vitro ADME; details: 25% mouse serum, pre-incubated 15 min at 37°C, peptide 10^−4 M, RP-HPLC peak areas, mean of biological triplicates
Experimental: (§1) (10−4 M final concentrations). At selected time intervals, 100 μl of reaction mixture was collected, quenched by 200 μl 95% EtOH, and adjusted at pH 2 to prevent peptide adsorption to serum proteins. […] Supernatants were analyzed by RP-HPLC on an Xbridge C18 column with a linear gradient of water, 0.08% TFA, and acetonitrile with 1% TFA. HPLC peak areas were used to calculate the percentages of intact compound remaining at the various time points. MIC and MBC values were determined in triplicate in many ESKAPE clinical isolates, including a dozen MDR S. aureus, by the broth microdilution method. Peptidomimetics and antibiotics were assayed in a concentration range of 1 to 128 μM. The bacterial inoculum (5 × 10^5 colony-forming units [CFUs]/well) was prepared in MHB or CAMHB (150 μl). A Biotek Synergy 2 spectrophotometer was used to record the results after 18–20 h incubation at 35°C (±2°C). […] After every hour of culture for 4 h, serial dilutions were plated on BHI plates and incubated overnight at 37°C, and then the CFUs were counted and expressed as log CFU/ml. Phosphate-buffered saline (PBS)-exposed S. aureus MRSA was included as a control.
(§2) Supplementary file pbio.3000337.s013.docx: S7 Table Peptide half-lives in human and mouse sera. […] Peptide amounts and half-lives were determined by HPLC. Experiments were conducted on 25% human or mouse sera. Values are shown in minutes. The mean values correspond to biological triplicates. HPLC, high pressure liquid chromatography. (DOCX) Click here for additional data file.

[2] = system: E. faecium Aus0004; details: Aus0004
Experimental: as §1

[3] = Stability in human serum (half-life); type: in vitro ADME; details: 25% human serum, pre-incubated 15 min at 37°C, peptide 10^−4 M, RP-HPLC peak areas, mean of biological triplicates
Experimental: as §1, §2

[4] = system: S. aureus Newman; assay: microbe, parasite or virus in culture
Experimental: as §1

[5] = system: S. aureus Mu3 (MRSA); assay: microbe, parasite or virus in culture
Experimental: as §1

[6] = system: S. aureus; assay: Intracellular ATP levels of SCV versus normal colonies from skin abscesses; type: cell-based; details: individual values
Experimental: (§3) For the cutaneous abscess model, the mice were randomly divided into 5 sets. The mice were anesthetized with isoflurane, their dorsal fur shaved, and their skin disinfected with 70% ethanol. An overnight culture of S. aureus MRSA or P. aeruginosa LESB58 was washed with 0.9% NaCl, and then a subcutaneous injection of 2 × 10^9 CFUs and an equal amount of sterile Cytodex microcarrier beads (20 mg.ml^−1, Sigma) for S. aureus MRSA, or 10^8 CFUs for P. aeruginosa were injected into the shaved area. […] Mice were monitored every day and then euthanized with CO2 on Day 6 or on Day 3. Abscesses were excised, measured, and homogenized in PBS using an Ultra-Turax. Serial dilutions of the samples were plated on BHI (MRSA) or 2YT medium (LESB58) plates and then incubated overnight at 37°C. Afterward, the CFUs were counted and expressed as log CFU/ml. Dermonecrosis areas were calculated according to the formula π × L × W. ATP levels were determined with an ATP assay kit (Promega) according to manufacturer instructions on sets of 5 colonies harboring the SCV phenotype, and sets of 5 colonies harboring a normal phenotype, after growth on BHI plates.

[7] = system: S. aureus MRSA; assay: Cutaneous abscess mouse model (lesion size, CFU); type: in vivo, mice; details: cutaneous abscesses from MRSA in mice; IV 24 h post-infection, 1.5 mg.kg-1; individual values
Experimental: as §3

[8] = system: MRSA (Mu3); assay: microbe, parasite or virus in culture; details: Staphylococcus aureus, MRSA
Experimental: (§4) For 15 d in MHB, MICs were determined daily for each pseudopeptide and their antibiotic controls. This was done using cells from the well in which the compound concentration was one-half of the MIC (1/2MIC). For each compound, the 1/2MIC well from the previous day’s MIC assay plate was re-suspended and the bacteria grown to a density of about 10^8 cells ml−1. The suspension was diluted in MHB or CAMHB (10^6 cells/ml) and then used to determine the MIC of the same compound determined by micro broth dilution. All MIC measurements were performed in duplicate. Aliquots of the 5 × 10^4 cell/ml dilutions for each 1/2MIC well were periodically plated on MHB and incubated at 35°C for 18 h to verify cell density by colony counts and for visual inspection of colony phenotypes. To control compound stability, peptide solution MICs were determined during and at the end of the 15 d and were compared to cells unexposed to antibiotics. In vivo resistance was also assessed in treated mice (1.5 mg.kg^−1) for 4 d (sepsis) or 6 d (skin abscesses). […] The broth microdilution method was performed as per EUCAST recommendations on 5 independent colonies per mouse (3 mice per set, 15 colonies per drug tested). For severe sepsis and subcutaneous abscesses, in vivo resistance was determined by plating aliquots of crude kidney extracts or abscesses on plates containing 1-, 2-, 4-, or 8-fold the peptide MICs 7 or 3 d post infections, respectively.

[9] = system: MRSA; assay: Severe sepsis mouse model, survival; type: in vivo; details: mice, approximately 2 × 10^9 CFUs MRSA IV; 4 IV doses of 0.5 mg.kg^−1 at 2, 24, 48, 72 h
From the text: Tolerance and toxicity studies were done on male Swiss mice (CD-1 Crl: CD-1 [ICR] IGS; Charles River). These were 7 to 10 weeks old and weighed an average of 37.2 g. All experimental protocols were approved by the Adaptive Therapeutics Animal Care and Use Committee (APAFiS #4508-2016031l15541258 v2). For the sepsis model, we used female Swiss mice (Janvier Labs), 6 to 8 weeks old and weighing approximately 30 g. Experiments were monitored in the ARCHE-BIOSIT animal lab in Rennes, in biological duplicate. We used Groups of 5 mice for the mild and the severe sepsis models with MRSA. Mice were IV inoculated with 150 μl of MRSA suspensions in 0.9% NaCl containing approximately 5 × 10^8 CFUs for the “mild” sepsis and approximately 2 × 10^9 CFUs for the “severe” sepsis, respectively. […] Mice survival was monitored for 4 d (“severe” sepsis) or 14 d (“mild” sepsis), and the statistical significance of difference(s) between the groups was evaluated using the Wilcoxon test. P < 0.05 was considered significant. Two weeks (“mild” sepsis) or 4 d (“severe” sepsis) after inoculation, mice were euthanized with CO2.

[10] = system: MSSA (Newman); assay: microbe, parasite or virus in culture; details: Staphylococcus aureus
Experimental: as §4

[11] = system: MRSA (Mu3); assay: microbe, parasite or virus in culture
Experimental: as §4

[12] = system: S. aureus N315 (MRSA); assay: microbe, parasite or virus in culture; details: Staphylococcus aureus, MRSA
Experimental: as §1

[13] = system: S. aureus COB; assay: microbe, parasite or virus in culture; details: Staphylococcus aureus
Experimental: as §1
(§5) Supplementary file pbio.3000337.s007.docx: S1 Table Antibacterial activity of the 4 peptidomimetics focusing on 9 S. aureus MDR clinical isolates. Clinical isolates BCB/POE and 740404 DUN are from human sepsis. The other strains are from catheter infections or suppurating wounds. Brilacidin was used as a control. MDR, multidrug resistant. (DOCX) Click here for additional data file.

[14] = system: S. aureus 33845; assay: microbe, parasite or virus in culture; details: Staphylococcus aureus
Experimental: as §1, §5

[15] = system: S. aureus 66534 E; assay: microbe, parasite or virus in culture; details: Staphylococcus aureus
Experimental: as §1, §5

[16] = system: S. aureus 702697 HOU; assay: microbe, parasite or virus in culture; details: Staphylococcus aureus
Experimental: as §1, §5

[17] = system: S. aureus FORT; assay: microbe, parasite or virus in culture; details: Staphylococcus aureus
Experimental: as §1, §5

[18] = system: S. aureus ROUS; assay: microbe, parasite or virus in culture; details: Staphylococcus aureus
Experimental: as §1, §5

[19] = system: S. aureus PM64; assay: microbe, parasite or virus in culture; details: Staphylococcus aureus, PM64
Experimental: as §1, §5

[20] = system: S. aureus BCB/POE; assay: microbe, parasite or virus in culture; details: Staphylococcus aureus
Experimental: as §1, §5

[21] = system: S. aureus 740404 DUN; assay: microbe, parasite or virus in culture; details: Staphylococcus aureus
Experimental: as §1, §5

[22] = system: P. aeruginosa LESB58; assay: Cutaneous abscess mouse model (CFU); type: in vivo, mice; details: mice, P. aeruginosa LESB58; 9 mg.kg^−1 subcutaneous multiple doses; day 3
Experimental: as §3

[23] = system: P. aeruginosa PA14; details: P. aeruginosa PA14
Experimental: as §1

[24] = system: Escherichia coli K12; details: E. coli K12
Experimental: as §1

[25] = system: Escherichia coli ML35P; details: E. coli ML35P
Experimental: as §1

[26] = system: Escherichia coli 13090
Experimental: as §1

[27] = system: P. aeruginosa 15643
Experimental: as §1

[28] = system: P. aeruginosa LESB58; details: P. aeruginosa strain LESB58; biological triplicates
Experimental: as §1, with “μM.” for “μM. The bacterial inoculum (5 × 10^5 colony-forming units [CFUs]/well) was prepared in MHB or CAMHB (150 μl). A Biotek Synergy 2 spectrophotometer was used to record the results after 18–20 h incubation at 35°C (±2°C).”, “Phosphate-buffered saline (PBS)-exposed S. aureus MRSA was included as a control.” left out
For 15 d in MHB, MICs were determined daily for each pseudopeptide and their antibiotic controls. […] The suspension was diluted in MHB or CAMHB (10^6 cells/ml) and then used to determine the MIC of the same compound determined by micro broth dilution. […] To control compound stability, peptide solution MICs were determined during and at the end of the 15 d and were compared to cells unexposed to antibiotics. In vivo resistance was also assessed in treated mice (1.5 mg.kg^−1) for 4 d (sepsis) or 6 d (skin abscesses). […]

[29] = broth microdilution, 3 independent experiments

Compound: CCCCCCCCCC(=O)N[C@@H](Cc1c[nH]c2ccccc12)C(=O)N[C@H](CC(N)=O)C(=O)N[C@@H](CC(=O)O)C(=O)N[C@@H]1C(=O)NCC(=O)N[C@@H](CCCN)C(=O)N[C@@H](CC(=O)O)C(=O)N[C@H](C)C(=O)N[C@@H](CC(=O)O)C(=O)NCC(=O)N[C@H](CO)C(=O)N[C@@H]([C@H](C)CC(=O)O)C(=O)N[C@@H](CC(=O)c2ccccc2N)C(=O)O[C@@H]1C [Daptomycin, daptomycin, reference compound]
- half-life [1]: > 58.3 h
- MIC [2]: 0.5 (1) μM
- half-life [3]: 52.3 ± 6.67 h
- MIC ([4]; Newman): 0.25 (0.5) μM
- MIC ([5]; Mu3): 0.5 (1) μM

Compound: CN[C@H](CC(C)C)C(=O)N[C@H]1C(=O)N[C@@H](CC(N)=O)C(=O)N[C@H]2C(=O)N[C@H]3C(=O)N[C@H](C(=O)N[C@H](C(=O)O)c4cc(O)cc(O)c4-c4cc3ccc4O)[C@H](O)c3ccc(c(Cl)c3)Oc3cc2cc(c3O[C@@H]2O[C@H](CO)[C@@H](O)[C@H](O)[C@H]2O[C@H]2C[C@](C)(N)[C@H](O)[C@H](C)O2)Oc2ccc(cc2Cl)[C@H]1O [Vanco]
- Intracellular ATP level, 'normal growing' ([6]; 'normal growing' colonies from MRSA abscesses of mice treated IV with 1.5 mg.kg-1): 122379 AU and 119801 AU and 111813 AU and 113023 AU and 103234 AU
- Intracellular ATP level, SCV ([6]; SCV from MRSA abscesses of mice treated IV with 1.5 mg.kg-1): 20326.9 AU and 5706.67 AU and 6923.08 AU and 10333.3 AU and 15090.9 AU
- Area of dermonecrosis [7]: 88.6 mm2 and 44.4 mm2 and 88.5 mm2 and 82.8 mm2 and 67.1 mm2 and 13 mm2 and 197.8 mm2 and 164.7 mm2 and 166.7 mm2 and 90 mm2

Compound: CN[C@H](CC(C)C)C(=O)N[C@H]1C(=O)N[C@@H](CC(N)=O)C(=O)N[C@H]2C(=O)N[C@H]3C(=O)N[C@H](C(=O)N[C@H](C(=O)O)c4cc(O)cc(O)c4-c4cc3ccc4O)[C@H](O)c3ccc(c(Cl)c3)Oc3cc2cc(c3O[C@@H]2O[C@H](CO)[C@@H](O)[C@H](O)[C@H]2O[C@H]2C[C@](C)(N)[C@H](O)[C@H](C)O2)Oc2ccc(cc2Cl)[C@H]1O [Vancomycin, vancomycin]
- MIC [8]: 1 µM (≈ 1.45 µg/mL)
- MIC ([8]; 24 h): 1 µM (≈ 1.45 µg/mL)
- Survival in severe sepsis [9]: much less effective
- MIC ([10]; MSSA (Newman), d0 of serial passages): 0.5 µM (≈ 0.725 µg/mL)
- MIC ([10]; MSSA|NEWMAN, d14 of serial passages at sub-MIC): 1 µM (≈ 1.45 µg/mL)
- MIC ([11]; MRSA (Mu3), d14 of serial passages at sub-MIC): 1 (1.4) μM
- MIC ([11]; Staphylococcus aureus, MRSA): 1 µM (≈ 1.45 µg/mL)
- MIC ([4]; Staphylococcus aureus, NEWMAN): 0.5 µM
- MIC [12]: 2 µM
- MIC ([5]; Staphylococcus aureus, MRSA): 1 µM

Compound: N=C(N)NCCCCC(=O)Nc1cc(C(F)(F)F)cc(NC(=O)c2cc(C(=O)Nc3cc(C(F)(F)F)cc(NC(=O)CCCCNC(=N)N)c3O[C@@H]3CCNC3)ncn2)c1O[C@@H]1CCNC1 [brilacidin, reference compound]
- MIC [13]: 1 µg/mL
- MIC [14]: 1 µg/mL
- MIC [15]: 1 µg/mL
- MIC [16]: 1 µg/mL
- MIC [17]: 1 µg/mL
- MIC [18]: 1 µg/mL
- MIC [19]: 1 µg/mL
- MIC [20]: 1 µg/mL
- MIC [21]: 1 µg/mL
- Survival in severe sepsis [9]: cured the infected animals

Compound: colistin
- Number of bacteria in abscess [22]: lowered the number of bacteria
- MBC/MIC [23]: 2
- MIC [23, 29]: 0.5 (0.65) μM
- MBC/MIC [24]: 1
- MIC [24, 29]: 0.5 (0.65) μM
- MBC/MIC [25]: 1
- MIC [25, 29]: 0.5 (0.65) μM
- MBC/MIC ([26]; E. coli 13090): 1
- MIC ([26]; E. coli 13090, clinical strain, Caen hemoculture, broth microdilution, 3 independent experiments): 1 (1.3) μM
- MBC/MIC ([27]; P. aeruginosa 15643): 2
- MIC ([27]; P. aeruginosa 15643, clinical strain, Caen hemoculture, broth microdilution, 3 independent experiments): 0.5 (0.65) μM
- MIC [28]: 1 µM

— PMC6615598, “Novel antibiotics effective against gram-positive and -negative multi-resistant bacteria with limited resistance” (PLoS Biology, 2019)
